Values quoted from earlier work in patent US20180016637A1, “METHOD OF EVALUATING THE RESPONSE OF ATAXIA TELANGIECTASIA PATIENTS TO GLUCOCORTICOIDS TREATMENT” (EryDel S.p.A., priority 2015, published 2018).

Tested on: lymphoblastoid cell lines from lymphocytes of A-T patients

## C[C@@H]1C[C@H]2[C@@H]3CCC4=CC(=O)C=C[C@]4(C)[C@@]3(F)[C@@H](O)C[C@]2(C)[C@@]1(O)C(=O)COP(=O)(O)O [Dexamethasone sodium phosphate]
  transcript induced in vitro: a transcript of about 1582 bp denominated ATMdexa1
